Data on 14 compounds can be found in ChEMBL document CHEMBL3739327, “Novel indole-based sigma-2 receptor ligands: synthesis, structureaffinity relationship and antiproliferative activity” (Medchemcomm, 2015).

The source made the active and inactive calls. No cut-off for these calls is given here.

Test [1] concerns the target Sigma non-opioid intracellular receptor 1 (Rattus norvegicus, UniProt Q9R0C9). Put plainly: Displacement of [3H]-(+)-pentazocine from sigma 1 receptor in rat brain by competition binding assay. The test is classed as tissue-based. In general terms: Displacement assays read how much labelled ligand stays bound in the presence of the test substance.
Test [2] is described as follows: Displacement of [3H]-DTG from sigma 2 receptor in rat liver membrane by competition binding assay in presence of dextrallorphan. The test is classed as cell membranes.
The species named for the next test is Rattus norvegicus. Briefly: Selectivity ratio of Ki for sigma 1 receptor in rat brain to Ki for sigma 2 receptor in rat liver membrane. The test is classed as cell membranes.
A short description of test [3]: Cell cycle arrest in human DU145 cells assessed as accumulation at G1 phase after 24 hrs by propidium iodide staining-based flow cytometry. The test is classed as functional. Conditions: DU-145. A general note: A flow cytometer gives signals particle by particle.
Test [4] has as its target Sigma non-opioid intracellular receptor 1 (Cavia porcellus, UniProt Q60492). Put plainly: Displacement of [3H]-(+)-pentazocine from sigma-1 receptor in guinea pig brain membrane by competition binding assay. The test is classed as cell membranes.
In test [5] the test system is MCF7. Put plainly: Antiproliferative activity against human MCF7 cells assessed as reduction in cell viability after 24 hrs by MTT assay. Type of test: functional, cell-based. The conditions noted are these: MCF7, 24 h. (In general: Tetrazolium assays rely on reduction of a dye to a coloured formazan, in cell work by metabolically active cells.)
The test system of test [6] is MCF7. Briefly: Antiproliferative activity against human MCF7 cells assessed as reduction in cell viability after 48 hrs by MTT assay. Type of test: functional, cell-based. The conditions noted are these: MCF7, 48 h.
Test [7] is described as follows: Antiproliferative activity against human DU145 cells assessed as reduction in cell viability after 24 hrs by MTT assay. Type of test: functional, cell-based. The conditions noted are these: DU-145, 24 h.
In a further test the test system is C6. Put plainly: Antiproliferative activity against rat C6 cells assessed as reduction in cell viability after 24 hrs by MTT assay. The conditions noted are these: C6, 24 h. The test is classed as functional, cell-based.
The nature of test [8]: Cell cycle arrest in human DU145 cells assessed as accumulation at G1 phase at 15 to 25 uM after 24 hrs by propidium iodide staining-based flow cytometry (reference value: 58.2 %). The test is classed as functional. Conditions: DU-145.
Test [9] concerns MDA-MB-435. Put plainly: Induction of apoptosis in human MDA-MB-435 cells assessed as decreased cyclin D1 expression at 10 uM incubated for 24 hrs by Western blot analysis. Conditions: TDE = time-dependent effect. The test is classed as functional, cell-based.
Test [10] concerns MDA-MB-435. Put plainly: Induction of apoptosis in human MDA-MB-435 cells assessed as decreased cyclin B1 expression at 10 uM incubated for 24 hrs by Western blot analysis. Type of test: functional, cell-based.
The test system of test [11] is MDA-MB-435. Put plainly: Induction of apoptosis in human MDA-MB-435 cells assessed as decreased phospho-Rb expression at 10 uM incubated for 24 hrs by Western blot analysis. Type of test: functional, cell-based.
The nature of test [12]: Displacement of [3H]-DTG from sigma 2 receptor in rat brain by competition binding assay. The test is classed as tissue-based.
The nature of test [13]: Selectivity ratio of Ki for sigma 1 receptor in guinea pig brain membrane to Ki for sigma 2 receptor in rat liver membrane. The test is classed as cell membranes.
The nature of test [14]: Cell cycle arrest in human DU145 cells assessed as accumulation at G1 phase at 40 uM after 24 hrs by propidium iodide staining-based flow cytometry (reference value: 58.2 %). The test is classed as functional. Conditions: DU-145.
Test [15] can be described thus: Cell cycle arrest in human DU145 cells assessed as accumulation at S phase at 40 uM after 24 hrs by propidium iodide staining-based flow cytometry (reference value: 38.6 %). The test is classed as functional. Conditions: DU-145.
The nature of test [16]: Cell cycle arrest in human DU145 cells assessed as accumulation at G1 phase at 30 uM after 24 hrs by propidium iodide staining-based flow cytometry (reference value: 58.2 %). Type of test: functional. Conditions: DU-145.
The nature of test [17]: Cell cycle arrest in human DU145 cells assessed as accumulation at S phase at 30 uM after 24 hrs by propidium iodide staining-based flow cytometry (reference value: 38.6 %). Type of test: functional. Conditions: DU-145.

Sigma non-opioid intracellular receptor 1 (Rattus norvegicus, UniProt Q9R0C9), sequence (Q9R0C9 whole entry): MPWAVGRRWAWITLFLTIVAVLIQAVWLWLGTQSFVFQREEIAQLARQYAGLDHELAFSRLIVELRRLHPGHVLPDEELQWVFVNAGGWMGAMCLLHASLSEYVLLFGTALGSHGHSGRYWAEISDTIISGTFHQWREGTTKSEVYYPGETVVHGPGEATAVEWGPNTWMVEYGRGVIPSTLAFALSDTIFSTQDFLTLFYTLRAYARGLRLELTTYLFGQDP
Sigma non-opioid intracellular receptor 1 (Cavia porcellus, UniProt Q60492), sequence (Q60492 whole entry): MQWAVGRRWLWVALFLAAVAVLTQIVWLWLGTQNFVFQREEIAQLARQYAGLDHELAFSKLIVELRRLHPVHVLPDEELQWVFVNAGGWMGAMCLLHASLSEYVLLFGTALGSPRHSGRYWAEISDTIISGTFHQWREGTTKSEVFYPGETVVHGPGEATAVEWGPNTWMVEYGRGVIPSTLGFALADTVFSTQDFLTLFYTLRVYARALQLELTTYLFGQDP

In the case of `FCCOCCOc1ccc(N2CCN(CCCCc3cn(-c4ccc(F)cc4)c4ccccc34)CC2)cc1`, the Ki in [1] worked out at 1110 nM; in [2], 458 nM. The Ratio Ki in the test listed under Rattus norvegicus was determined as 2.4.

Consider `N#CC1(c2ccccc2)CCN(CCCCc2cn(-c3ccc(I)cc3)c3ccccc23)CC1`, for which the Ki in [1] was determined as 386 nM; in test [2] it was 18.5 nM. Further, the Ratio Ki in the test listed under Rattus norvegicus was 20.9.

Turning to `FCCn1cc(CCCCN2CCC3(CC2)OCc2ccccc23)c2ccccc21`, the Ki in test [1] was found to be 246 nM; in test [2], 44 nM. Also, the Ratio Ki in the test listed under Rattus norvegicus was determined as 5.6.

Take `Fc1ccc(-n2cc(CCCCN3CCC4(CC3)OCc3ccccc34)c3ccccc32)cc1` [SIRAMESINE]: the Activity entry was “Dose-dependent effect” in [3], 75.7% in test [8] and “tde” in the test on MDA-MB-435 [9]. Moreover, the Ki in test [4] stood at 10.5 nM; in test [2], 3.08 nM. Further, the EC50 was 23600 nM in the test with MCF7 [5], 12300 nM with MCF7 [6], 13900 nM in test [7] and 43100 nM in the test with C6. The outcome with MDA-MB-435 [10] and in the test on MDA-MB-435 [11] was Active. In test [12], this compound came in with an IC50 of 0.12 nM.

Consider `COc1cc2c(cc1OC)CN(CCCCn1cc(CCCF)c3ccccc31)CC2`, for which the Ki was found to be 263 nM in test [1] and 28.5 nM in test [2]. In the test filed under Rattus norvegicus, the Ratio Ki stood at 9.2.

`COc1cc2c(cc1OC)CN(CCCCc1cn(-c3ccc(F)cc3)c3ccccc13)CC2`: the Activity entry is “Dose-dependent effect” in test [3], 84.1% in test [14] and 15.9% in test [15]. Also, the Ki in [1] worked out at 531 nM; in [2], 49.2 nM. Further, the Ratio Ki worked out at 10.8 in the test filed under Rattus norvegicus and 260 in test [13]. The EC50 was 20900 nM with MCF7 [5], 17800 nM in the test with MCF7 [6], 28800 nM in test [7] and 76500 nM in the test on C6.

With `COc1cc2c(cc1OC)CN(CCCCc1cn(-c3ccc(F)cc3)c3ccccc13)C2`, the results for the Activity entry in test [3], in test [16] and in test [17] were “Dose-dependent effect”, 80.5% and 19.3%, respectively. The figures for the Ki in [1] and in test [2] were 256 nM and 53.8 nM, respectively. Also, the Ratio Ki in the test listed under Rattus norvegicus turned out to be 4.8. Moreover, the EC50 in the test on MCF7 [5] was 17000 nM; in [7] it was 26900 nM; in the test with C6, 44100 nM.

In the case of `FCCOc1ccc(N2CCN(CCCCc3cn(-c4ccc(F)cc4)c4ccccc34)CC2)cc1`, the Ki in test [1] turned out to be 614 nM; in test [2], 68 nM. For the same compound, in the test listed under Rattus norvegicus, the Ratio Ki came to 9.

On to `COc1cc2c(cc1OC)CN(CCCCC(=O)c1ccc(F)cc1)CC2`, for which the Ki came out at 16.6 nM in test [1] and 12.4 nM in [2]. Further, the Ratio Ki in the test filed under Rattus norvegicus worked out at 1.3.

Consider `FCCOc1cccc(N2CCN(CCCCc3cn(-c4ccc(F)cc4)c4ccccc34)CC2)c1`, for which the Ki in test [1] is 257 nM; in test [2], 48.4 nM. In the test filed under Rattus norvegicus, the Ratio Ki stood at 5.3.

As to `FCCc1cn(CCCCN2CCC3(CC2)OCc2ccccc23)c2ccccc12`, the inhibition constant Ki stood at 11 nM in [1] and 29.8 nM in test [2]. In addition, the Ratio Ki in the test filed under Rattus norvegicus is 0.4.

With `N#CC1(c2ccccc2)CCN(CCCCc2cn(-c3ccc(F)cc3)c3ccccc23)CC1`, the Ki in test [1] was determined as 2.58 nM; in [2], 3.03 nM. Besides, the Ratio Ki in the test filed under Rattus norvegicus was 0.9.

As to `COc1cc2c(cc1OC)CN(CCCCn1cc(CCF)c3ccccc31)CC2`, the Ki in [1] is 493 nM; in test [2], 27.5 nM. Further, in the test listed under Rattus norvegicus, the Ratio Ki was 17.9.

Consider `FCCOCCOCCOc1ccc(N2CCN(CCCCc3cn(-c4ccc(F)cc4)c4ccccc34)CC2)cc1`, for which the Ki in test [1] came out at 2160 nM; in [2] it was 1880 nM. Further, the Ratio Ki in the test listed under Rattus norvegicus was found to be 1.1.

The term Ki denotes a measure of affinity in units of concentration, obtained from inhibition or displacement. As a reminder, the EC50 is the concentration at which the effect is half-maximal. The IC50 is the concentration that inhibits the measured activity by half. Read a high IC50 as lower potency.
